ChEMBL document CHEMBL4765356, “Synthesis and biological evaluation of thiophenylbenzofuran derivatives as potential P-glycoprotein inhibitors” (Eur J Med Chem, 2020)

Assays:
[1] = Cytotoxicity against Flp-In-293 cells assessed as reduction in cell viability measured after 72 hrs by SRB assay; assay type: cell-based; conditions: Homo sapiens, Flp-In-293, 72 h
[2] = Cytotoxicity against Flp-In-293 cells expressing human ABCB1 assessed as reduction in cell viability measured after 72 hrs by SRB assay; assay type: ADME, cell-based; conditions: Flp-In-293, 72 h
[3] = system: HeLa; test: Cytotoxicity against human HeLa cells assessed as reduction in cell viability measured after 72 hrs by SRB assay; assay type: cell-based
[4] = Cytotoxicity against human KB-VIN cells assessed as reduction in cell viability measured after 72 hrs by SRB assay; assay type: cell-based; conditions: KBVIN

Measured: IC50

COc1ccc(CCN(C)CCCC(C#N)(c2ccc(OC)c(OC)c2)C(C)C)cc1OC (centres undefined)
> 50 µM: all assays above
